This is an account of results in patent publication US10654866B2, “Selective estrogen receptor degraders” (Eli Lilly and Company, priority 2018, dated 2020).

One experiment deals with ERα (wild type) (Homo sapiens (Human), UniProt P03372). The experiment can be described thus: ERα (wild type) competition binding assay. The following applies: 3H-estradiol competition; Ki from IC50 by Cheng-Prusoff. The procedure: (§1) Add the test compound at 10 different concentrations ranging from 10,000 nM to 0.5 nM, and determine nonspecific binding in the presence of 1 μM of 1713 estradiol. Incubate the binding reaction (140 μL) for 4 hours at room temperature, and then add cold dextran-charcoal buffer (70 μL) (containing per 50 mL of assay buffer, 0.75 g of charcoal and 0.25 g of dextran) to each reaction. Mix the plates for 8 minutes on an orbital shaker at 4° C. and then centrifuge at 3000 rpm at 4° C. for 10 minutes. Transfer an aliquot (120 μL) of the mixture to another 96-well, white flat bottom plate (Costar) and add Perkin Elmer Optiphase Supermix scintillation fluid (175 μL) to each well. Seal the plates and shake vigorously on an orbital shaker. After an incubation of 2.5 hours, read the plates in a Wallac Microbeta counter. […] Convert the IC50 values for the compound to Ki using Cheng-Prusoff equation.
ERα (wild type), sequence (P03372 whole entry): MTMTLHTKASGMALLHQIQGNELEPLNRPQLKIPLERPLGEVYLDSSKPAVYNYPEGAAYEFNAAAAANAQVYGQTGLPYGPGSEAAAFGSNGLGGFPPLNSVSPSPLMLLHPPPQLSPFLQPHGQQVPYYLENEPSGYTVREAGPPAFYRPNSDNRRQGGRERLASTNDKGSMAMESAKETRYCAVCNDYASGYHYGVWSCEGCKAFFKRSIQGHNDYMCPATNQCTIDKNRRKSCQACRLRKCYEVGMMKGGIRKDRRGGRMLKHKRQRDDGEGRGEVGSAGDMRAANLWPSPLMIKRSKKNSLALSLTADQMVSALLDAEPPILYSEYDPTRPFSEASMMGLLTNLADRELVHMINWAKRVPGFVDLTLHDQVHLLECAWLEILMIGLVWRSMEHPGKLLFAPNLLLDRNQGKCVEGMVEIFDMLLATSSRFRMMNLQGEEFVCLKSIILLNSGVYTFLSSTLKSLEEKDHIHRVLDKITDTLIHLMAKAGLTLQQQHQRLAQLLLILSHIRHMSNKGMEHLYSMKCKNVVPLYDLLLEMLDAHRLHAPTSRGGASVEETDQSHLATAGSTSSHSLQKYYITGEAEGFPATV

In the next experiment the target is ERα (Y537S mutant) (Homo sapiens (Human), UniProt P03372, Y537S). The experiment is described as follows: ERα (Y537S mutant) competition binding assay. To be noted: 3H-estradiol competition; Ki from IC50 by Cheng-Prusoff. How it is done: as §1
ERα (Y537S mutant), sequence (P03372 whole entry Y537S): as the sequence (P03372 whole entry) above, with Y537S counted along it
The target in experiment [1] is T1, ERα (Homo sapiens (Human), UniProt P03372). The experiment is described as follows: ERα degradation assay in MCF7 cells. The format is cell-based. To be noted: 24 hours, % ER positive cells, read-out: Relative IC50. How it is done: The purpose of the following ERα degradation assay is to measure the degradation of ERα by a test compound in an ERα positive breast cancer cell line such as MCF7.
T1 sequence (P03372 whole entry): as the sequence (P03372 whole entry) above
Culture MCF7 (purchased from ATCC HTB-22) cells in DMEM media supplemented with 10% FBS, 0.01 mg/mL human insulin 1 and 1% penicillin/streptomycin antibiotics and plate in 384-well flat-bottom plates at a density of 4,000 cells per well in phenol red free DMEM media (20 μL) containing 10% charcoal stripped FBS. Incubate the cells overnight in a cell culture incubator (5% CO2, 95% relative humidity and 37° C.) and allow the cells to attach to the plate. The following day dose the cells with the test compound. Use an Echo 555 acoustic dispenser to prepare test compound serial dilutions (1:3) in a range from 6 μM to 0.0003 μM. Dose the cells with the addition of 5 μL from the serial dilution plate to the cell plate producing a final DMSO concentration of 0.2% with a final test compound concentration dose range between 2 and 0.0001 μM. For the maximum point, use media containing 0.2% of DMSO and for the minimum point, use fulvestrant diluted at 2 μM final concentrations in the growth media containing 0.2% DMSO. After dosing with the test compound, incubate the cell plates at 37° C. and 5% CO2 for 24 hours. Fix the cells by adding 14% para-formaldehyde (10 μL) for 30 minutes at room temperature. Wash the cells once with PBS (20 μL) and incubate with PBS (20 μL) containing 0.5% (v/v) TWEEN® 20 for 1 hour. Wash the cells with PBS containing 0.05% TWEEN® 20 (2×) and block with 3% BSA in PBS containing 0.05% TWEEN® 20 and 0.1% TRITON™ X-100 (20 μL/well) for 1 hour at room temperature. Add 1:500 Primary antibody (20 μL) (ERα (Clone SP1) monoclonal rabbit antibody # RM-9101-S, Thermo Scientific) dilution in 1% BSA in PBS containing 0.05% TWEEN® 20 per well, seal the plates and incubate overnight at 4° C. The following day wash the cells with PBS containing 0.05% TWEEN® 20 (2×) and incubate with secondary antibody (20 μL/well) (1:1000 dilution, Goat anti-rabbit IgM ALEXA FLUOR™ 488) in PBS 1% BSA for 105 minutes at room temperature. […] Seal the plates and incubate 1 hour at room temperature on the bench (preserved from light). Scan the plates with ACUMEN EXPLORER™ [Laser-scanning fluorescence microplate cytometer manufactured by TTP LABTECH LTD] to measure ERα. Image analysis is based on cellular fluorescent signals for identifying positive cells. Identify ER positive cells by mean intensity. Use total intensity at 575-640 nm from propidium iodide/DNA to identify individual cells. Assay output is % ER positive cells. Determine the IC50 by curve fitting to a four parameter logistic for each output using GENE DATA™.

The target of experiment [2] is Y537N mutant ERα receptor (Homo sapiens, UniProt P03372, Y537N). The experiment is described as follows: PRα inhibition (ERα functional antagonism) cell assay in MCF7-ESR1 Y537N 682 CRISPR cells. The following applies: MCF7 Y537N 682 CRISPR cells, 72 hours, % PR positive cells; read-out: Relative IC50. It counts as cell-based. The procedure: An antagonist in this assay is expected to block the function of the ERα receptor.
Incubate the cells overnight in a cell culture incubator (5% CO2, 95% relative humidity and 37° C.) and allow the cells to attach to the plate. The following day dose the cells with the test compound. Use an Echo 555 acoustic dispenser to prepare compound serial dilutions (1:3) in a range from 6 μM to 0.0003 μM. Dose the cells with the addition of 5 μL from the serial dilution plate to the cell plate producing a final DMSO concentration of 0.2% with a final test compound concentration dose range between 2 and 0.0001 μM. For the maximum point use media containing 0.2% of DMSO and for the minimum point, use fulvestrant diluted at 2 μM final concentrations in the growth media containing 0.2% DMSO. After dosing with test compound, incubate the cell plates at 37° C. and 5% CO2 for 72 hours. Fix the cells by adding 14% para-formaldehyde (10 μL) for 30 minutes at room temperature. Wash the cells with PBS (1×20 μL) and incubate with PBS (20 μL) of containing 0.5% (v/v) TWEEN® 20 for 1 hour. Wash the cells with PBS (2×20 μL) 0.05% TWEEN® 20, and block with 3% BSA/PBS 0.05% TWEEN® 20, 0.1% TRITON™ X-100 (20 μL/well) for 1 hour at room temperature. Add 1:500 primary antibody (20 μL) (PR monoclonal mouse anti-human antibody, clone PgR 636 Dako, M3569) dilution in 1% BSA/PBS 0.05 TWEEN® 20 per well, seal the plates and incubate overnight at 4° C.
The following day, wash the cells with PBS […] (2×20 μL) and incubate with secondary antibody (20 μL/well) (1:1000 dilution, Goat anti-rabbit IgM ALEXA FLUOR™ 488) in PBS 1% BSA for 105 minutes at room temperature. […] Seal the plates and incubate 1 hour at room temperature on the bench (preserved from light). Scan the plates with ACUMEN EXPLORER™ [Laser-scanning fluorescence microplate cytometer manufactured by TTP LABTECH LTD] to measure PRα. Image analysis is based on cellular fluorescent signals for identifying positive cells. Identify PR positive cells by mean intensity. Use total intensity at 575-640 nm from propidium iodide/DNA to identify individual cells. Assay output is % PR positive cells. Determine the IC50 by curve fitting to a four parameter logistic for each output using GENE DATA™.

Experiment [3] concerns the target T1, ERα. The experiment can be described thus: PRα inhibition (ERα functional antagonism) cell assay in MCF7 cells. The format is cell-based. The following applies: MCF7 cells pretreated with 0.47 nM estradiol, % PRα positive cells; read-out: Relative IC50. The source says:
The purpose of the following PRα inhibition (ERα functional antagonism) cell assay is to determine the antagonistic activity of a test compound against the ERα receptor. An antagonist in this assay is expected to block the function of the ERα receptor.
Carry out the assay conditions as detailed in the ERα degradation Cell base Acumen assay above, using the MCF7 cell line except that, prior to test compound dispensing, remove the media from the cell plate and pretreat all wells except for the negative control wells (column 24 of the plate) with assay media containing 0.47 nM estradiol for 30 minutes. In this assay, carry out immunostaining for the detection of PRα and scan the plates with ACUMEN EXPLORER™ [Laser-scanning fluorescence microplate cytometer manufactured by TTP LABTECH LTD] to measure PRα. Image analysis is based on cellular fluorescent signals for identifying positive cells. Identify PRα positive cells by mean intensity. Use total intensity at 575-640 from propidium iodide/DNA to identify individual cells. Assay output is % PRα positive cells. Determine the IC50 by curve fitting to a four parameter logistic for each output using GENE DATA™.

Experiment [4] deals with MCF7 ER-positive breast cancer model. The experiment is described as follows: In vivo combination studies in MCF7 ER-positive breast cancer xenograft model. Set-up: species or system mice. To be noted: for Difference (Treatment 1 − Treatment 2): Treatment 1 = Vehicle, log10 tumor volume. The text has this: Otherwise, the statistical conclusion is additive.

Take `Oc1ccc2c3c(cnc2c1)-c1ccc(Cl)cc1OC3c1ccc(OCCN2CC(CF)C2)cc1` (racemic) [Example 3, 8-chloro-5-(4-{2-[3-(fluoromethyl)azetidin-1-yl]ethoxy}phenyl)-5H-[1]benzopyrano[4,3-c]quinolin-2-ol]: the Ki (usually the dissociation constant of the complex between target and ligand, obtained from inhibition or displacement) on ERα (wild type) stood at 2.36 nM; on ERα (Y537S mutant), 6.69 nM. The DC50 on ERα [1] was 33.5 ± 7.83 nM. In addition, the IC50 (usually the concentration needed to halve the response being measured) in experiment [2] came to 77.2 ± 11.5 nM.

Take `Oc1ccc2c3c(cnc2c1)-c1ccc(Cl)cc1OC3c1ccc(OCCN2CC(CF)C2)cc1` (single isomer, unassigned) [Example 3A, 8-Chloro-5-(4-{2-[3-(fluoromethyl)azetidin-1-yl]ethoxy}phenyl)-5H-[1]benzopyrano[4,3-c]quinolin-2-ol]: the Ki at ERα (wild type) amounted to 8.11 nM; on ERα (Y537S mutant), 27.2 nM. Further, the DC50 at ERα [1] is 390 nM. In addition, the results for the IC50 (in experiment [2]; at ERα [3]) were 612 nM and 927 nM, respectively.

Turning to `Oc1ccc2c3c(cnc2c1)-c1ccc(Cl)cc1OC3c1ccc(OCCN2CC(CF)C2)cc1` (single isomer, unassigned) [Example 3B, 8-Chloro-5-(4-{2-[3-(fluoromethyl)azetidin-1-yl]ethoxy}phenyl)-5H-[1]benzopyrano[4,3-c]quinolin-2-ol], the values for the inhibitory constant (Ki) at ERα (wild type) and at ERα (Y537S mutant) were 0.59 nM and 2.79 nM, respectively. At ERα [1], the DC50 was found to be 8.66 nM. In addition, the concentration for half-maximal inhibition (IC50) in experiment [2] stood at 16 nM; on ERα [3], 34.4 nM.

For `CCN1CCN(Cc2ccc(Nc3ncc(F)c(-c4cc(F)c5nc(C)n(C(C)C)c5c4)n3)nc2)CC1` [Abemaciclib, abemaciclib, reference compound], the “Delta T/C % or % Regression” value in experiment [4] (Example 1B 10 mpk, Abemaciclib 50 mpk, QD × 42, PO (Table 16)) is −52%; in experiment [4] (Example 10 15 mpk, Abemaciclib 50 mpk, QD × 42, PO (Table 20)), −70%. Besides, the “Difference (Treatment 1 − Treatment 2)” value turned out to be 0.479 in experiment [4] (Example 1B 10 mpk, Abemaciclib 50 mpk, QD × 42, PO) and 0.445 in experiment [4] (Example 10 15 mpk, Abemaciclib 50 mpk, QD × 42, PO).

As for `CO[C@@H](C)Cn1c(=O)n(C)c2cnc3ccc(-c4cncc(C(C)(C)O)c4)cc3c21` [Compound A, 8-[5-(1-hydroxy-1-methylethyl)pyridin-3-yl]-1-[(2 S)-2-methoxypropyl]-3-methyl-1,3-dihydro-2H-imidazo[4,5-c]quinolin-2-one, reference compound], the “Delta T/C % or % Regression” value in experiment [4] (Example 1B 10 mpk QD × 42, Compound A 7.5 mpk BID × 42, PO (Table 18)) was −36%. For the same compound, in experiment [4] (Example 1B 10 mpk QD × 42, Compound A 7.5 mpk BID × 42, PO), the “Difference (Treatment 1 − Treatment 2)” value was 0.504.

Turning to `CO[C@H]1C[C@@H]2CC[C@@H](C)[C@@](O)(O2)C(=O)C(=O)N2CCCC[C@H]2C(=O)O[C@H]([C@H](C)C[C@@H]2CC[C@@H](OCCO)[C@H](OC)C2)CC(=O)[C@H](C)/C=C(\C)[C@@H](O)[C@@H](OC)C(=O)[C@H](C)C[C@H](C)/C=C/C=C/C=C/1C` [Everolimus, everolimus, reference compound], in experiment [4] (Example 10 15 mpk, Everolimus 5 mpk, QD × 42, PO (Table 24)), the “Delta T/C % or % Regression” value was −50%. Further, the “Difference (Treatment 1 − Treatment 2)” value in experiment [4] (Example 10 15 mpk, Everolimus 5 mpk, QD × 42, PO) is 0.433.

For the compound `Cc1nc(NC(=O)N2CCC[C@H]2C(N)=O)sc1-c1ccnc(C(C)(C)C(F)(F)F)c1` [alpelisib, reference compound], the “Delta T/C % or % Regression” value in experiment [4] (Example 10 15 mpk, alpelisib 15 mpk (d1-d7), 10 mpk (d8-42), QD × 42, PO (Table 22)) was −21%. The “Difference (Treatment 1 − Treatment 2)” value in experiment [4] (Example 10 15 mpk, alpelisib 15 mpk (d1-d7), 10 mpk (d8-42), QD × 42, PO) was 0.445.
